Data reported in patent US9023858B2, “Substituted pyrido[2,3-d]pyrimidines as delta-5-desaturase inhibitors” (Takeda Pharmaceutical Company Limited, priority 2010, dated 2015).
Structures can show the parent of a compound that is named as a salt.

Legend:
delta-5-desaturase [1] = biological target: T1, delta-5-desaturase (Rattus norvegicus, UniProt Q920R3); assay: Inhibitory activity on binding of [3H]-labelled Reference Example 1 ligand to delta-5-desaturase (rat liver microsome fraction); settings: test compound 10 μM; for inhibition at 10 µM: 3 nM tritiated ligand of Reference Example 1, read-out: Binding inhibitory activity against compound bind to delta-5-desaturase Binding inhibition rate (%) at 10 μM; for Binding inhibitory activity against compound bind to delta-5-desaturase Binding inhibition rate (%) at 10 μM: 3 nM tritiated ligand of Reference Example 1, sodium salt
T1 construct: a rat liver microsome fraction (10 μl) diluted to 3 mg/ml with a microsome buffer; from tissue; host or cells: rat liver microsome fraction
T1 sequence (Q920R3 whole entry): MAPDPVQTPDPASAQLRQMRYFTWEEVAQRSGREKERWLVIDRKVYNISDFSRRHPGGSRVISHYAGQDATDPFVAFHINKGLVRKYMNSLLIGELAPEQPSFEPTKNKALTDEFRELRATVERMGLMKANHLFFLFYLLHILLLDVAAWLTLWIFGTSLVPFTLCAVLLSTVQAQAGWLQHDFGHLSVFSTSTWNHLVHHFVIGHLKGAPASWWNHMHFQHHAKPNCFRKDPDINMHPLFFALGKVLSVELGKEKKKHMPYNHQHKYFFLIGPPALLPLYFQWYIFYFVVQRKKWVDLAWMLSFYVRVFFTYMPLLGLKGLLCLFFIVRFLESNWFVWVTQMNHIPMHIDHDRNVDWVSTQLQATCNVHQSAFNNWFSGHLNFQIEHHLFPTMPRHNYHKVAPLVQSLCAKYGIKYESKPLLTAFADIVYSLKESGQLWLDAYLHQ
Experimental: Inhibitory Activity on Binding of N-[2-({4-oxo-3-[4-(2,2,2-trifluoroethoxy)[2,6-^3H2]phenyl]-3,4-dihydrothieno[3,4-d]pyrimidin-2-yl}sulfanyl)ethyl]acetamide (Reference Example 1) to delta-5-desaturase)
All tests were performed at room temperature at 200 μL/well. A rat liver microsome fraction (30 μg/well) was preincubated with a test compound at a final concentration of 10 μM for 15 min in an assay buffer (10 mM Tris-HCl (pH 7.5), 100 mM KCl, 10 mM NaF, 3 mM MgCl2, 0.005% Tween20 and 1 mM GSH). N-[2-({4-oxo-3-[4-(2,2,2-trifluoroethoxy) [2,6-^3H2]phenyl]-3,4-dihydrothieno[3,4-d]pyrimidin-2-yl}sulfanyl)ethyl]acetamide was added to a final concentration of 3 nM and the mixture was incubated for 150 min. For Bound/Free separation, the membrane fraction was added on a GF/C glass filter using a cell harvester. The GF/C glass filter was washed 5 times with 300 μl of ice-cooled assay buffer (without 0.005% Tween) to separate the ligand bound to delta-5-desaturase. 50 μl of MicroScinti 0 was added, and the radioactivity on the filter was measured by TopCount. To evaluate non-specific binding, 10 μM N-[2-({4-oxo-3-[4-(2,2,2-trifluoroethoxy)phenyl]-3,4-dihydrothieno[3,4-d]pyrimidin-2-yl}sulfanyl)ethyl]acetamide was used. The inhibitory rate (%) of the test compound (10 μM) on the binding of N-[2-({4-oxo-3-[4-(2,2,2-trifluoroethoxy) [2,6-^3H2]phenyl]-3,4-dihydrothieno[3,4-d]pyrimidin-2-yl}sulfanyl)ethyl]acetamide to delta-5-desaturase was determined.

delta-5-desaturase [2] = biological target: T2, delta-5-desaturase (Homo sapiens, UniProt O60427); assay: Delta-5-desaturase inhibitory activity using HepG2 cell; type: cell-based; settings: test compound 1 μM
T2 construct: endogenous in cells; host or cells: HepG2
T2 sequence (O60427 whole entry): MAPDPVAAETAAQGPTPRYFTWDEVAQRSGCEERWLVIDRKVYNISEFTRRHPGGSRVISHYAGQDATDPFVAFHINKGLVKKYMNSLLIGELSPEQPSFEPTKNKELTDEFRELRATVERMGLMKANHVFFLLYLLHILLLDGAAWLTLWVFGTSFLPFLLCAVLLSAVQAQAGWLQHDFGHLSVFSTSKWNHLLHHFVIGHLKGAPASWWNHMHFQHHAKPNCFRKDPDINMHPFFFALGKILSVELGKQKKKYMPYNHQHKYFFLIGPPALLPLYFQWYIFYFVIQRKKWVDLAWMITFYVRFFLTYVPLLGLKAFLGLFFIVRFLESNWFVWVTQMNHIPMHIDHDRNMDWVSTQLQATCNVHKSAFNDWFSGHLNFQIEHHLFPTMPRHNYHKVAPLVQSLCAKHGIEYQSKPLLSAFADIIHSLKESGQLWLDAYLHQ
Experimental: Delta-5-Desaturase Inhibitory Activity Using HepG2 Cell
HepG2 was plated on a 96-well plate at 1×10^5 cells/well, and cultured overnight in DMEM (Dulbecco's modified Eagle medium) containing 10% FBS (fetal bovine serum). After washing (200 μL×2) with PBS (phosphate buffered saline), 40 μL of a reaction medium (DMEM, penicillin/streptomycin, 0.3% BSA) containing the test compound was added, and the mixture was preincubated in a CO2 incubator at 37° C. for 30 min. The reaction was started by adding a reaction medium (20 μL) containing 0.1 μCi [^14C]Eicosatrienoic acid, and the mixture was incubated in a CO2 incubator at 37° C. Incubation was performed for 3 hr, the cells were washed twice with 200 μL of PBS, detached with 50 μL of trypsin-EDTA and placed on a 96-deep well block. Furthermore, 20 μL of 2.5N NaOH was added, the plate was sealed and incubated overnight at 55° C. to allow saponification. The fatty acid extraction included acidifying with 10 μL of formic acid, adding chloroform:methanol (1:4), stirring, and further adding 200 μL of pure water to separate into two layers. The operation after development with TLC followed the method of detection system using TLC in a system using a rat liver microsome. A delta-5-desaturase inhibitory rate (%) of 1 μM test compound was determined.

delta-5-desaturase [3] = biological target: T3, delta-5-desaturase (Mus musculus, UniProt Q920L1); assay: Delta-5-desaturase inhibitory action in vivo (liver AA/DGLA ratio in mice); settings: 3 mg/kg by gavage for 4 days; male C57BL/6J mice; liver phospholipid fraction; solvent administration group as 100%
T3 construct: the mice were anesthetized, and the liver was isolated; tissue CLEA Japan, Inc; host or cells: liver of C57BL/6J mice (in vivo dosing)
T3 sequence (Q920L1 1-447): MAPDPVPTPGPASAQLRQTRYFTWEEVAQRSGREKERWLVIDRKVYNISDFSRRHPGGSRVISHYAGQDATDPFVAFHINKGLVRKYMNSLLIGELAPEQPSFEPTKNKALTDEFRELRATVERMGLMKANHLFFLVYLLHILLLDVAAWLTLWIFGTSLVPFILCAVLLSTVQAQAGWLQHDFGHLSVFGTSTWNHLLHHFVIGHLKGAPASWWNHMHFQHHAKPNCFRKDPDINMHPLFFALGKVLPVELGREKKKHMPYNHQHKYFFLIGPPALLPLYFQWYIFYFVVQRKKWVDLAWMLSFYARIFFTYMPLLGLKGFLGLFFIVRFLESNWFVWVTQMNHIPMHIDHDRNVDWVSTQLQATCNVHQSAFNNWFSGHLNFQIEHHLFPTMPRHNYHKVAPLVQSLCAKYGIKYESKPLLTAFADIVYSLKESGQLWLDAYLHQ
Experimental: Delta-5-Desaturase Inhibitory Action In Vivo
The delta-5-desaturase inhibitory action of the test compound in vivo was evaluated by the following method. A suspension of a test compound (3 mg/kg) in 0.5% methylcellulose was administered by gavage every morning at 10 mL/kg for 4 days to 7- to 9-week-old male normal mice (C57BL/6J, CLEA Japan, Inc.) acclimated with a normal chow feed (CE-2, CLEA Japan, Inc.) in individual cages. In the next morning of the final administration, the mice were anesthetized, and the liver was isolated. Total lipid was extracted from about 40 mg of a liver sample with hexane-propanol solution, and a phospholipid fraction was extracted using a solid phase extraction column (Sep-Pak Vac NH2, Waters) and labeled with an esterified long-chain and short-chain fatty acid labeling reagent (YMC). The arachidonic acid and dihomo-γ-linolenic acid contents of the sample after labeling were measured by high performance liquid chromatography (Agilent 1200, Agilent Technologies). The arachidonic acid (AA) content was divided by the content of dihomo-γ-linolenic acid (DGLA) to obtain an AA/DGLA ratio. The decrease rate of the test compound administration group was calculated based on the AA/DGLA ratio of the solvent administration group as 100%, which was used as an index of the liver delta-5-desaturase inhibitory action in vivo.

delta-5-desaturase [4] = biological target: T1, delta-5-desaturase; assay: Delta-5-desaturase inhibitory activity using rat liver microsome; type: biochemical; settings: test compound 10 μM; for delta-5-desaturase inhibitory activity (at liver microsome) Inhibitory activity (%) at 10 μM: sodium salt
Experimental: Delta-5-Desaturase Inhibitory Activity Using Rat Liver Microsome
The inhibitory activity of the test compound on delta-5-desaturase was measured by the method described below. To a solution of the test compound in DMSO prepared in advance was secondarily diluted with a buffer (300 mM NaH2PO4 [pH 7.4], 450 mM KCl, 30 mM NaF, 9 mM MgCl2, 4.5 mM glutathione [reduced form], 0.3% BSA [fatty acid free, SIGMA]) to give an assay buffer. The assay buffer (10 μl) was dispensed to a polypropylene deep 96-well block, and a rat liver microsome fraction (10 μl) diluted to 3 mg/ml with a microsome buffer (10 mM Tris-HCl [pH 7.4], 1 mM EDTA, 250 mM sucrose) was added. The enzyme reaction was started by adding 9 mM NADH, 9 mM ATP, 0.9 mM CoA, 10 μCi/ml (8E,11E,14E)-(1-^14C)eicosa-8,11,14-trienoic acid (PerkinElmer Inc.) (10 μl). The enzyme reaction was performed for 120 min at room temperature, and discontinued by the addition of 10 μl of 2.5M NaOH. After discontinuation of the reaction, the plate was sealed and incubated overnight at 55° C. to allow saponification. The fatty acid was extracted with solvent based on the Bligh & Dyer method described in Can. J. Biochem. Physiol., vol. 37, page 911 (1959) by adding formic acid:methanol:chloroform (1:6:3) (200 μl), maintaining the single layer state, sufficiently stirring the mixture and adding pure water (120 μl) for separation into two layers. The lower chloroform layer (10 μl) was spotted on a reversed-phase TLC plate (RP-18, 1154230001, Merck Japan, Ltd.), developed with acetonitrile:pure water:acetic acid (95:4.5:0.5), and the dried TLC plate was transcribed on Imaging Plate (Fuji Photo Film Co., Ltd.) for 5 hr or longer. The detection was performed using BAS-5000 (Fuji Photo Film Co., Ltd.), and the obtained spot image was numerically converted by Multi Gauge Ver2.3 (Fuji Photo Film Co., Ltd.) and a delta-5-desaturase inhibitory rate (%) of 10 μM test compound was determined.

## O=C1CCc2c(nc(OCC(F)(F)F)n(-c3ccc(OCC(F)(F)F)cc3)c2=O)N1 [Example 22, 2-(2,2,2-trifluoroethoxy)-3-[4-(2,2,2-trifluoroethoxy)phenyl]-5,6-dihydropyrido[2,3-d]pyrimidine-4,7(3H,8H)-dione]
delta-5-desaturase [1]
  inhibition at 10 µM: 92%
delta-5-desaturase [2]
  inhibition at 1 µM: 101%
delta-5-desaturase [3]
  lowering rate (%) of arachidonic acid/dihomo-γ-linolenic acid ratio: 68%
delta-5-desaturase [4]
  inhibition at 10 µM: 100%

## O=c1ccc2c(=O)n(-c3ccc(OCC(F)(F)F)cc3)c(OCC(F)F)nc2[nH]1 [Example 16, 2-(2,2-difluoroethoxy)-3-[4-(2,2,2-trifluoroethoxy)phenyl]pyrido[2,3-d]pyrimidine-4,7(3H,8H)-dione]
delta-5-desaturase [1]
  inhibition at 10 µM: 96%
delta-5-desaturase [2]
  inhibition at 1 µM: 102%
delta-5-desaturase [3]
  lowering rate (%) of arachidonic acid/dihomo-γ-linolenic acid ratio: 69%
delta-5-desaturase [4]
  inhibition at 10 µM: 101%

## CCSc1nc2nc(OC)ccc2c(=O)n1-c1ccc(OCC(F)(F)F)cc1 [Example 1, 2-(ethylsulfanyl)-7-methoxy-3-[4-(2,2,2-trifluoroethoxy)phenyl]pyrido[2,3-d]pyrimidin-4(3H)-one]
delta-5-desaturase [1]
  inhibition at 10 µM: 94%
delta-5-desaturase [2]
  inhibition at 1 µM: 101%
delta-5-desaturase [3]
  lowering rate (%) of arachidonic acid/dihomo-γ-linolenic acid ratio: 73%
delta-5-desaturase [4]
  inhibition at 10 µM: 100%

## CCOc1nc2nc(OC)ccc2c(=O)n1-c1ccc(OCC(F)(F)F)cc1 [Example 4, 2-ethoxy-7-methoxy-3-[4-(2,2,2-trifluoroethoxy)phenyl]pyrido[2,3-d]pyrimidin-4(3H)-one]
delta-5-desaturase [1]
  inhibition at 10 µM: 99%
delta-5-desaturase [2]
  inhibition at 1 µM: 96%
delta-5-desaturase [3]
  lowering rate (%) of arachidonic acid/dihomo-γ-linolenic acid ratio: 64%
delta-5-desaturase [4]
  inhibition at 10 µM: 102%

## O=C1CCc2c(nc(CCC(F)(F)F)n(-c3ccc(OCC(F)(F)F)cc3)c2=O)N1 [Example 39, 3-[4-(2,2,2-trifluoroethoxy)phenyl]-2-(3,3,3-trifluoropropyl)-5,6-dihydropyrido[2,3-d]pyrimidine-4,7(3H,8H)-dione]
delta-5-desaturase [1]
  inhibition at 10 µM: 91%
delta-5-desaturase [2]
  inhibition at 1 µM: 98%
delta-5-desaturase [3]
  lowering rate (%) of arachidonic acid/dihomo-γ-linolenic acid ratio: 67%

## O=c1ccc2c(=O)n(-c3ccc(OCC(F)(F)F)cc3)c(OC3CCC(F)(F)CC3)nc2[nH]1 [Example 15, 2-[(4,4-difluorocyclohexyl)oxy]-3-[4-(2,2,2-trifluoroethoxy)phenyl]pyrido[2,3-d]pyrimidine-4,7(3H,8H)-dione]
delta-5-desaturase [1]
  inhibition at 10 µM: 99%
delta-5-desaturase [2]
  inhibition at 1 µM: 102%
delta-5-desaturase [3]
  lowering rate (%) of arachidonic acid/dihomo-γ-linolenic acid ratio: 69%
delta-5-desaturase [4]
  inhibition at 10 µM: 104%

## CCOc1nc2c(c(=O)n1-c1ccc(OCC(F)(F)F)cc1)CCC(=O)N2 [Example 23, 2-ethoxy-3-[4-(2,2,2-trifluoroethoxy)phenyl]-5,6-dihydropyrido[2,3-d]pyrimidine-4,7(3H,8H)-dione]
delta-5-desaturase [1]
  inhibition at 10 µM: 91%
delta-5-desaturase [2]
  inhibition at 1 µM: 93%
delta-5-desaturase [3]
  lowering rate (%) of arachidonic acid/dihomo-γ-linolenic acid ratio: 67%
delta-5-desaturase [4]
  inhibition at 10 µM: 96%

## O=c1ccc2c(=O)n(-c3ccc(OCC(F)(F)F)cc3)c(OCC(F)(F)F)nc2[nH]1 [Example 12, 2-(2,2,2-trifluoroethoxy)-3-[4-(2,2,2-trifluoroethoxy)phenyl]pyrido[2,3-d]pyrimidine-4,7(3H,8H)-dione sodium salt]
delta-5-desaturase [1]
  Binding inhibitory activity against compound bind to delta-5-desaturase Binding inhibition rate (%) at 10 μM: 96%
delta-5-desaturase [3]
  lowering rate (%) of arachidonic acid/dihomo-γ-linolenic acid ratio: 70%
delta-5-desaturase [4]
  delta-5-desaturase inhibitory activity (at liver microsome) Inhibitory activity (%) at 10 μM: 99%

## CCOc1nc2[nH]c(=O)ccc2c(=O)n1-c1ccc(OCC(F)(F)F)cc1 [Example 10, 2-ethoxy-3-[4-(2,2,2-trifluoroethoxy)phenyl]pyrido[2,3-d]pyrimidine-4,7(3H,8H)-dione sodium salt]
delta-5-desaturase [1]
  Binding inhibitory activity against compound bind to delta-5-desaturase Binding inhibition rate (%) at 10 μM: 94%
delta-5-desaturase [3]
  lowering rate (%) of arachidonic acid/dihomo-γ-linolenic acid ratio: 71%
delta-5-desaturase [4]
  delta-5-desaturase inhibitory activity (at liver microsome) Inhibitory activity (%) at 10 μM: 98%
